Type in all cases: functional
Test [1] deals with Escherichia coli. The test is described as follows: Antibacterial activity against clinical isolate Escherichia coli K12 J53-ST10 696/17 expressing blaNDM-1 co-expressing blaCMY-4 assessed as meropenem MIC at 23.5 uM measured after 20 hrs by broth microdilution assay (reference value: 5.03 mg/L).
Test [2] deals with Klebsiella pneumoniae. The test is described as follows: Antibacterial activity against clinical isolate Klebsiella pneumoniae 50/11 expressing blaNDM-1 co-expressing blaTEM-1/blaSHV-28/blaTEM-1/blaCTX-M-15 and blaOXA-1 assessed as meropenem MIC at 23.5 uM measured after 20 hrs by broth microdilution assay (reference value: 5.03 mg/L). On the technique in general: Broth dilution looks for growth in wells or tubes with falling amounts of substance.

Test [3] concerns Escherichia coli. In words: Antibacterial activity against clinical isolate Escherichia coli K12 J53-ST10 618/15 expressing blaNDM-1 assessed as meropenem MIC at 47 uM measured after 20 hrs by broth microdilution assay (reference value: 10.06 mg/L).
The test system of test [4] is Escherichia coli. In words: Antibacterial activity against clinical isolate Escherichia coli K12 J53-ST10 699/15 expressing blaNDM-1 assessed as meropenem MIC at 47 uM measured after 20 hrs by broth microdilution assay (reference value: 10.06 mg/L).
Test [5] relates to Escherichia coli. In words: Antibacterial activity against clinical isolate Escherichia coli 371/12 expressing blaNDM-7 co-expressing blaCTX-M-15 and blaOXA-1 assessed as meropenem MIC at 23.5 uM measured after 20 hrs by broth microdilution assay (reference value: 5.03 mg/L).
Test [6] has as its system Klebsiella pneumoniae. In words: Antibacterial activity against clinical isolate Klebsiella pneumoniae 50/20 expressing blaNDM-5 co-expressing blaTEM-1 and blaSHV-1 assessed as meropenem MIC at 23.5 uM measured after 20 hrs by broth microdilution assay (reference value: 5.03 mg/L).
Test [7] has as its system Acinetobacter baumannii. In words: Antibacterial activity against clinical isolate Acinetobacter baumannii IC 19/09 expressing blaNDM-1 co-expressing blaOXA-64 assessed as meropenem MIC at 23.5 uM measured after 20 hrs by broth microdilution assay (reference value: 5.03 mg/L).
The test system of test [8] is Klebsiella pneumoniae. The test is described as follows: Antibacterial activity against clinical isolate Klebsiella pneumoniae ST23213/19 expressing blaNDM-1 co-expressing blaOXA-48/blaSHV-11/blaCTX-M-15 and blaOXA-1 assessed as meropenem MIC at 47 uM measured after 20 hrs by broth microdilution assay (reference value: 10.06 mg/L).
The test system of test [9] is Escherichia coli. In words: Antibacterial activity against clinical isolate Escherichia coli K12 J53-ST10 618/15 expressing blaNDM-1 assessed as meropenem MIC at 23.5 uM measured after 20 hrs by broth microdilution assay (reference value: 5.03 mg/L).
Test [10] deals with Klebsiella pneumoniae. In words: Antibacterial activity against clinical isolate Klebsiella pneumoniae 62/07 expressing blaVIM-19 co-expressing blaSHV-1/blaCTX-M-14 and blaCMY-4 assessed as meropenem MIC at 23.5 uM measured after 20 hrs by broth microdilution assay (reference value: 5.03 mg/L).
The test system of test [11] is Escherichia coli. The test is described as follows: Antibacterial activity against clinical isolate Escherichia coli K12 J53-ST10 684/18 expressing blaNDM-1 co-expressing blaCMY-2 and blaOXA-10 assessed as meropenem MIC at 23.5 uM measured after 20 hrs by broth microdilution assay (reference value: 5.03 mg/L).
The subject of test [12] is Escherichia coli. In words: Antibacterial activity against clinical isolate Escherichia coli K12 J53-ST10 684/18 expressing blaNDM-1 co-expressing blaCMY-2 and blaOXA-10 assessed as meropenem MIC at 47 uM measured after 20 hrs by broth microdilution assay (reference value: 10.06 mg/L).
The test system of test [13] is Klebsiella pneumoniae. In words: Antibacterial activity against clinical isolate Klebsiella pneumoniae ST1493/10 expressing blaNDM-1 co-expressing blaCMY-2like/blaTEM-1/blaCTX-M-15/blaSHV-28/blaOXA-1 and blaOXA-9 assessed as meropenem MIC at 23.5 uM measured after 20 hrs by broth microdilution assay (reference value: 5.03 mg/L).
In test [14] the test system is Klebsiella pneumoniae. The test is described as follows: Antibacterial activity against clinical isolate Klebsiella pneumoniae ST1493/10 expressing blaNDM-1 co-expressing blaCMY-2like/blaTEM-1/blaCTX-M-15/blaSHV-28/blaOXA-1 and blaOXA-9 assessed as meropenem MIC at 47 uM measured after 20 hrs by broth microdilution assay (reference value: 10.06 mg/L).
In test [15] the test system is Escherichia coli. In words: Antibacterial activity against clinical isolate Escherichia coli K12 J53-ST10 699/15 expressing blaNDM-1 assessed as meropenem MIC at 23.5 uM measured after 20 hrs by broth microdilution assay (reference value: 5.03 mg/L).
The subject of test [16] is Klebsiella pneumoniae. The test is described as follows: Antibacterial activity against clinical isolate Klebsiella pneumoniae ST23213/19 expressing blaNDM-1 co-expressing blaOXA-48/blaSHV-11/blaCTX-M-15 and blaOXA-1 assessed as meropenem MIC at 23.5 uM measured after 20 hrs by broth microdilution assay (reference value: 5.03 mg/L).
Test [17] has as its system Escherichia coli. In words: Antibacterial activity against clinical isolate Escherichia coli K12 J53-ST10 696/17 expressing blaNDM-1 co-expressing blaCMY-4 assessed as meropenem MIC at 47 uM measured after 20 hrs by broth microdilution assay (reference value: 10.06 mg/L).
In test [18] the test system is Escherichia coli. In words: Antibacterial activity against clinical isolate Escherichia coli ST1012/10 expressing blaNDM-1 co-expressing blaTEM-1/blaCTX-M-15/blaOXA-1 and blaOXA-2 assessed as meropenem MIC at 23.5 uM measured after 20 hrs by broth microdilution assay (reference value: 5.03 mg/L).
Test [19] deals with Escherichia coli. The test is described as follows: Antibacterial activity against clinical isolate Escherichia coli ST1012/10 expressing blaNDM-1 co-expressing blaTEM-1/blaCTX-M-15/blaOXA-1 and blaOXA-2 assessed as meropenem MIC at 47 uM measured after 20 hrs by broth microdilution assay (reference value: 10.06 mg/L).
Test [20] relates to Escherichia coli. In words: Antibacterial activity against clinical isolate Escherichia coli 371/12 expressing blaNDM-7 co-expressing blaCTX-M-15 and blaOXA-1 assessed as meropenem MIC at 47 uM measured after 20 hrs by broth microdilution assay (reference value: 10.06 mg/L).
Test [21] has as its system Klebsiella pneumoniae. In words: Antibacterial activity against clinical isolate Klebsiella pneumoniae 50/20 expressing blaNDM-5 co-expressing blaTEM-1 and blaSHV-1 assessed as meropenem MIC at 47 uM measured after 20 hrs by broth microdilution assay (reference value: 10.06 mg/L).
Test [22] relates to Acinetobacter baumannii. The test is described as follows: Antibacterial activity against clinical isolate Acinetobacter baumannii IC 19/09 expressing blaNDM-1 co-expressing blaOXA-64 assessed as meropenem MIC at 47 uM measured after 20 hrs by broth microdilution assay (reference value: 10.06 mg/L).
For test [23], the system named is Klebsiella pneumoniae. The test is described as follows: Antibacterial activity against clinical isolate Klebsiella pneumoniae 50/11 expressing blaNDM-1 co-expressing blaTEM-1/blaSHV-28/blaTEM-1/blaCTX-M-15 and blaOXA-1 assessed as meropenem MIC at 47 uM measured after 20 hrs by broth microdilution assay (reference value: 10.06 mg/L).
The subject of test [24] is Klebsiella pneumoniae. The test is described as follows: Antibacterial activity against clinical isolate Klebsiella pneumoniae 62/07 expressing blaVIM-19 co-expressing blaSHV-1/blaCTX-M-14 and blaCMY-4 assessed as meropenem MIC at 47 uM measured after 20 hrs by broth microdilution assay (reference value: 10.06 mg/L).

For one compound, MIC results are on record in ChEMBL document CHEMBL5365420, “Kinetics, Thermodynamics, and Structural Effects of Quinoline-2-Carboxylates, Zinc-Binding Inhibitors of New Delhi Metallo-β-lactamase-1 Re-sensitizing Multidrug-Resistant Bacteria for Carbapenems” (J Med Chem, 2023).

The term MIC denotes the lowest concentration found to suppress growth. As for `Oc1c(Cl)cc(Cl)c2cccnc12` [CHLOROXINE], the MIC was at most 0.125 mg/L in the test with Escherichia coli [1]; 4 mg/L in the test on Klebsiella pneumoniae [2]; at most 0.125 mg/L with Escherichia coli [3]; at most 0.125 mg/L with Escherichia coli [4]; at most 0.125 mg/L in the test on Escherichia coli [5]; 4 mg/L with Klebsiella pneumoniae [6]. The MIC in the test with Acinetobacter baumannii [7] was at most 0.125 mg/L; in the test with Klebsiella pneumoniae [8], 16 mg/L; with Escherichia coli [9], at most 0.125 mg/L; in the test with Klebsiella pneumoniae [10], 8 mg/L; in the test on Escherichia coli [11] it was at most 0.125 mg/L; in the test on Escherichia coli [12], at most 0.125 mg/L. Moreover, the MIC in the test on Klebsiella pneumoniae [13] was 128 mg/L; with Klebsiella pneumoniae [14], 16 mg/L; in the test with Escherichia coli [15], at most 0.125 mg/L; in the test with Klebsiella pneumoniae [16] it was 128 mg/L; with Escherichia coli [17], at most 0.125 mg/L; in the test on Escherichia coli [18] it was at most 0.125 mg/L. In addition, the MIC in the test on Escherichia coli [19], with Escherichia coli [20], with Klebsiella pneumoniae [21], with Acinetobacter baumannii [22], with Klebsiella pneumoniae [23] and with Klebsiella pneumoniae [24] was at most 0.125 mg/L throughout.
